According to patent US20220008414A1, “PHARMACEUTICAL COMPOSITION COMPRISING HISTONE DEACETYLASE 6 INHIBITORS” (Chong Kun Dang Pharmaceutical Corp., priority 2018, published 2022):

Assays:
[1] = tested on: hippocampal neurons from a Sprague-Dawley (SD) rat fetus; experiment: Effect on axonal transport velocity of mitochondria (in vitro); assay type: cell-based; conditions: amyloid-beta treated neurons, vehicle set at 100%, amyloid-beta group at 0%
Method: To that end, on the 17th to 18th days (E17-18) of insemination, the hippocampal neurons from a Sprague-Dawley (SD) rat fetus were cultured for seven days in a culture container for imaging, which had been coated with extracellular matrix, and were treated with amyloid-beta protein fragments at a concentration of […]. In 24 hours later, such neurons were treated with the compound on the 8th day of in vitro culture. In three hours later, they were treated with MitoTracker Red CMXRos (Life Tech-nologies, NY, USA) for last five minutes to stain mitochondria. An image on the axonal transport of stained neuron mitochondria was taken with a confocal microscope (Leica SP8; Leica microsystems, UK) at an interval of one second for one minute to measure a transport velocity of each mitochondria per second with an IMARIS analysis program (BITPLANE, Zurich, Switzerland), and to set a section, in which the group treated with amyloid-beta had shown a significant decrease in the transport velocity of mitochondria compared to a vehicle. After that, the results of normalization with the vehicle set at 100% and with the group treated with amyloid-beta set at 0% were described in the following table 1.

HDAC-8 = target: T1, HDAC-8 (Homo sapiens, UniProt Q9BY41); experiment: HDAC isotype enzyme assay (Reaction biology Corp.); assay type: biochemical; conditions: substrate RHK-K(Ac)-AMC
T1 construct: Reaction biology Corp. (contract laboratory)
T1 sequence (Q9BY41 1-377): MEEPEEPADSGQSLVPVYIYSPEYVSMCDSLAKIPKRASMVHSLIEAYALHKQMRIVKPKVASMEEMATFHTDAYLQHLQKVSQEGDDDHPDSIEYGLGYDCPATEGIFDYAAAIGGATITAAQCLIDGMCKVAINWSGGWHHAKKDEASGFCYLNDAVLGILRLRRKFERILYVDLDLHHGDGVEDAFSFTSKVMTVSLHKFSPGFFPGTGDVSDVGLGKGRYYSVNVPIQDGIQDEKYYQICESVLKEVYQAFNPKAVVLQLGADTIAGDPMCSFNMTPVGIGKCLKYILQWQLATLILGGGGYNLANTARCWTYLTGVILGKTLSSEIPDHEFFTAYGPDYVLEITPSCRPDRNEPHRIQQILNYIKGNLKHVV

other HDAC isotypes = experiment: HDAC isotype enzyme assay (Reaction biology Corp.), remaining isotypes; assay type: biochemical; conditions: isotypes other than HDAC6 and HDAC8 (ND in table 3)
CMT1A mice (C22) [2] = experiment: Rotarod test; assay type: in vivo; conditions: 10, 25 and 100 mg/kg twice a day orally for two weeks, 2.5-week-old C22 mice, vs control group (DW C22)
Method: (§1) Particularly, the compound 84 was repeatedly administered into the 2.5-week-old CMT1A mice (C22) at 10, 25 and 100 mg/kg twice a day for two weeks. Behavioral evaluation and electrophysiological analysis were performed on the last day, immediately after which the animals were sacrificed to carry out histopathological analysis and evaluation.
(§2) Rotarod, balance beam and grip strength tests were conducted once a day for two days. Thereafter, the animals were distributed by the Z-array method based on the results of rotarod, grip strength, and body weight. C22 mice were divided into four groups consisting of DW treated group and three compound 84 treated groups (10, 25, 100 mg/kg) with 10 mice per group. The test articles were repeatedly administered twice a day orally, and the behavioral test was performed 30 min after administration of the test articles.
The Rotarod test (ROTA ROD, LE8205, Panlab) was performed to evaluate a motor coordination function/motor function. For three days before the test, all the test animals were placed on a road at 8 rpm and subjected to adaptive training five times a day. The animals, whose time of falling from the rod reached 150-180 seconds, were used in the test (including about 80% of all the animals). In both group separation and the present experiment, time at which animals fell from the rod was measured at a fixed speed of 8 rpm for three minutes. […]

CMT1A mice (C22) [3] = experiment: Grip strength test; assay type: in vivo; conditions: 10, 25 and 100 mg/kg twice a day orally for two weeks, 2.5-week-old C22 mice, vs control group (DW C22)
Method: as §1, §2
In an actual clinical test, a degree of muscle atrophy is evaluated with an ankle dorsiflexion examination and a grip test. GST (GRIP […] TEST, BIO-GS3, BIOSEB) is mainly used in an animal experiment. For the GST, strength of four feet was evaluated with grid. All the experiments were performed by one person. […] Out of the values consecutively measured five times, the maximum value was calibrated with a weight, and then used as evaluation results. […]

CMT1A mice (C22) [4] = experiment: Nerve conduction study (NCS); assay type: in vivo; conditions: 10, 25 and 100 mg/kg twice a day for two weeks, 2.5-week-old C22 mice, vs control group (DW C22)
Method: as §1
The evaluation of the nerve conduction study (NSC) was as follows. A supramaximal stimulus was applied to proximal peripheral nerves, after which the compound muscle action potentials (CMAP) produced from distal muscles controlled by the nerves were recorded to measure a latent period, amplitude, nerve conduction velocity (NCV), duration, shape, area and the like, which were then compared with normal values and thus evaluated. For the nerve conduction study (NSC), an electrical stimulus was given to the sciatic nerves of the mice anesthetized with isoflurane, after which the electrical stimulus given to sural nerves was measured with VikingQuest (Natus Medical Inc.).

CMT1A mice (C22) [5] = experiment: Histopathological analysis of sciatic nerves; assay type: in vivo
Method: as §1
A histopathological analysis was performed as follows. In 0.5 hours after the last administration of the compound 84, the mice were euthanized through cervical dis-location, after which their sciatic nerves were collected therefrom. For a histopathological examination, the collected sciatic nerves were fixed into 2.5% glu-taraldehyde solution. The fixed tissues were prepared into a plastic-embedded block through a tissue treatment process, then micro-sectioned in the semithin thickness of 500 nm to prepare sciatic nerve tissue fragments, and then stained with toluidine blue.
The stained nerve tissues were photographed at 400× magnification with an optical microscope. In a photographed entire area, the inner axon diameters of total myelinated fibers and total unmyelinated fibers were measured with an image J program. The results thereof were analyzed by using the numbers of total myelinated fibers and total unmyelinated fibers as well as a size distribution chart on the diameters of respective nerve fibers.

HDAC-6 [6] = target: T2, HDAC-6 (Homo sapiens, UniProt Q9UBN7); experiment: HDAC6 enzyme activity inhibition (HDAC Fluorimetric Drug Discovery Kit); assay type: biochemical; set-up: purchased Calbiochem Inc. 382180; conditions: HDAC6 over HDAC1
T2 sequence (Q9UBN7 1-1215): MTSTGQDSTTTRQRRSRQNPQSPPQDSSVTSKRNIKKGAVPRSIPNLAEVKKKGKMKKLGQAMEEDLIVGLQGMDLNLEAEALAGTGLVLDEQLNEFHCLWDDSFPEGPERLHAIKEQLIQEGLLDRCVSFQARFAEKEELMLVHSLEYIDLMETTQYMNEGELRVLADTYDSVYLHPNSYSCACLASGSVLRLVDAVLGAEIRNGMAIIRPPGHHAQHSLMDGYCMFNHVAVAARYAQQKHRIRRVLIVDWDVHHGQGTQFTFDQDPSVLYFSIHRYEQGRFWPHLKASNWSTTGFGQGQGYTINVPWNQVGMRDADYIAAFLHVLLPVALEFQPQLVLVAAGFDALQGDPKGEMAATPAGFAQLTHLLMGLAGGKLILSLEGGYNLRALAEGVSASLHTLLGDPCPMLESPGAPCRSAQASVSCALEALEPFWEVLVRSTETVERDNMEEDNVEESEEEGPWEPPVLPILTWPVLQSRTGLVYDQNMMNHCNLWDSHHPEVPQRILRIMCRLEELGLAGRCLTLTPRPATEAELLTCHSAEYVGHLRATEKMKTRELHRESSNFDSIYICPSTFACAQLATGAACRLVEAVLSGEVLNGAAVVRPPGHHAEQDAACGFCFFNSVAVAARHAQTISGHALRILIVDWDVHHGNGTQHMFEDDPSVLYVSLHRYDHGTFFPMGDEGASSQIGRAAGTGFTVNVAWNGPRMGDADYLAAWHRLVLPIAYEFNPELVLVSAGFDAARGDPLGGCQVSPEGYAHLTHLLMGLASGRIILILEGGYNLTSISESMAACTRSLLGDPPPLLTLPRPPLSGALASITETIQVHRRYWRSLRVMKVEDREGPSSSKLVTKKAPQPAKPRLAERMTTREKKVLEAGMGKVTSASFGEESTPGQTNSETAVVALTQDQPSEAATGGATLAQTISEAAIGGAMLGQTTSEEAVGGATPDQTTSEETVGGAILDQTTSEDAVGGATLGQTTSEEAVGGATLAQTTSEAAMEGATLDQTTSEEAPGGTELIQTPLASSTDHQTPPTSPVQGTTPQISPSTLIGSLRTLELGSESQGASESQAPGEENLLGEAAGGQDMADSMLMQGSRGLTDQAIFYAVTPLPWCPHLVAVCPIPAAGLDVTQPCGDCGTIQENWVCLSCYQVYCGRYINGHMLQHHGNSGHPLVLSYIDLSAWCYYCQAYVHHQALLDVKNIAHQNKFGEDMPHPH
Method: A comparative experiment was conducted with an existing developed material as a control group in order to identify the selectivity of the compound represented by Formula I of the present invention to HDAC6 through an experiment on HDAC1 and HDAC6 enzyme activity inhibition.
The HDAC enzyme activity was measured with HDAC Fluorimetric Drug Discovery Kit (BML-[1424] AK511, 516) of Enzo Life Science, Inc. For the test on the HDAC1 enzyme activity, human recombinant HDAC1 (BML-SE456) was used as an enzyme source and Fluor de Lys®-“SIRT1 (BNL-KI177)” was used as a substrate. A 5-fold dilution of the compound was divided into a 96-well plate, after which 0.3 μg of the enzyme and 10 μM of the substrate were inserted into each well and subjected to reaction at 30° C. for 60 minutes, such that Fluor de Lys® Developer II (BMLKI176) was inserted thereinto and subjected to reaction for 30 minutes and finished. After that, a fluorescence value (Ex 360, Em 460) was measured with a multi-plate reader (Flexstation 3, Molecular Device). An experiment on HDAC6 enzyme was conducted in accordance with the same protocol as an HDAC1 enzyme activity test method by using human recombinant HDAC6 (382180) of Calbiochem Inc. Each IC50 value was calculated with GraphPad Prism 4.0 program, and final result values were described in the following table 2.

HDAC-6 [7] = target: T2, HDAC-6; experiment: HDAC isotype enzyme assay (Reaction biology Corp.); assay type: biochemical; set-up: Reaction biology Corp. (contract laboratory); conditions: substrate RHK-K(Ac)-AMC
Source text: The experiment was requested at Reaction biology Corp. (Malvern, Pa., USA) and performed according to a test method established within the organization.

Row | SMILES | Velocity distribution (%) ([1]; 0.5 uM) | Velocity distribution (%) ([1]; 15 uM) | IC50 (HDAC-8) [nM] | Inhibition of other HDAC isotypes (other HDAC isotypes) | Time of latency to fall (CMT1A mice (C22) [2]) | Grip strength (CMT1A mice (C22) [3]) | Compound muscle action potentials (CMAP) (CMT1A mice (C22) [4]) | Motor nerve conduction velocity (MNCV) (CMT1A mice (C22) [4]) | Size of diameters of myelinated nerves (CMT1A mice (C22) [5]; sciatic nerve, vs control group (C22-Veh)) | Ratio of myelinated nerves and unmyelinated nerves (CMT1A mice (C22) [5]; sciatic nerve, vs control group of mice) | Morphological changes (loss of myelinated nerve fibers, axonal atrophy and schwann cell hyperplasia) (CMT1A mice (C22) [5]; toluidine blue, 10, 25 or 100 mg/kg for two weeks, vs control group of mice) | HDAC6 selectivity (fold) (HDAC-6 [6]) | IC50 (HDAC-6 [7]) [nM] | Velocity distribution (%) ([1]; 1 uM) | Velocity distribution (%) ([1]; 3 uM)
1 | C[C@@H]1CN(Cc2ccc(C(=O)NO)cc2)C[C@H](C)N1Cc1ccccc1 [Compound 84, 4-(((3R,5S)-4-benzyl-3,5-dimethylpiperazin-1-yl)methyl)-N-hydroxybenzamide] | * (0%~50%) | *** (>100%) | 5170 | not inhibited at all | increased in a dose-dependent manner | increased in a dose-dependent manner | increased in a dose-dependent way | increased in a dose-dependent way | increase | significant increase | significant improvement | 517 | 72.2 |  | 
2 | C[C@@H]1CN(Cc2ccc(C(=O)NO)cc2)C[C@H](C)N1Cc1cccc(CN2CCCCC2)c1 [Compound 382, 4-(((3R,5S)-3,5-dimethyl-4-(3-(piperidin-1-ylmethyl)benzyl)piperazin-1-yl)methyl)-N-hydroxybenzamide] |  |  |  |  |  |  |  |  |  |  |  | >120 |  |  | 
3 | CC(C)CCN1CCN(Cc2cccc(CN3[C@H](C)CN(Cc4ccc(C(=O)NO)cc4)C[C@@H]3C)c2)CC1 [Compound 454, N-hydroxy-4-(((3R,5S)-4-(3-((4-isopentylpiperazin-1-yl)methyl)benzyl)-3,5-dimethylpiperazin-1-yl)methyl)benzamide] |  | ** (50%~100%) |  |  |  |  |  |  |  |  |  | >237 |  | * (0%~50%) | * (0%~50%)
